Laboratory results reported in ChEMBL document CHEMBL4483862, “Open-source discovery of chemical leads for next-generation chemoprotective antimalarials” (2018).

System: Plasmodium berghei
Assay: Luciferase/luciferin-expressing antifolate-resistant parasites were used to infect a culture of HepG2 cells that were pre-incubated with compounds. Infected hepatocytes emit light due to the luciferase reaction. Assay results are presented as the percent inhibition of light emission compared to control. […]
Type: functional
Conditions: sporozoite; for IC90: read-out: LUCIFERASE INFECTION ASSAY - IC90
[1] = read-out: LUCIFERASE INFECTION ASSAY - IC50

| Compound | IC50 [1] [µM] | IC90 [µM] | also measured |
| --- | --- | --- | --- |
| CCOC(=O)c1c(NC(=O)C[n+]2ccc(Cc3ccccc3)cc2)sc(C)c1C | 3.79 | 8.6 |  |
| CC(C)(C)c1ccccc1NC(=O)Nc1nc(C(N)Cc2ccccc2)cs1 (stereo unspecified) | 4.59 | 7.79 |  |
| Cc1cc(C)n(-c2ccc([N+](=O)[O-])cc2S(=O)(=O)N(CC(=O)N2CCCc3ccccc32)c2ccc(Cl)cc2)n1 |  | 4.71 | IC50 (FFLUC_HILL_SLOPE 9.12, FFLUC_R_SQUARED 0.891, HEPG2TOX_HILL_SLOPE 1.68, HEPG2TOX_R_SQUARED 0.248, PBLUC_HILL_SLOPE 7.9, PBLUC_R_SQUARED 0.762, read-out: LUCIFERASE INFECTION ASSAY - IC50): 3.56 µM |
| CC(NC(=O)c1cnn(-c2ccc(C(F)(F)F)cn2)c1C(F)(F)F)C1CC2CCC1C2 (stereo unspecified) |  | 5.3 | IC50 (HEPG2TOX_HILL_SLOPE 11.2, HEPG2TOX_R_SQUARED 0.292, PBLUC_HILL_SLOPE 7.94, PBLUC_R_SQUARED 0.51, read-out: LUCIFERASE INFECTION ASSAY - IC50): 4.02 µM |
| COCCNC(=S)NNc1ccc2ccccc2c1 |  | 1.19 | IC50 (HEPG2TOX_HILL_SLOPE 2.26, HEPG2TOX_R_SQUARED 0.95, PBLUC_HILL_SLOPE 42.9, PBLUC_R_SQUARED 0.446, read-out: LUCIFERASE INFECTION ASSAY - IC50): 1.13 µM |
| CCOc1ccccc1N/C=C1/C(=O)N(Cc2ccc3c(c2)OCO3)C(=O)c2ccccc21 | > 10 | > 10 |  |
| C=CCN(CC(=O)NCc1ccc2c(c1)OCO2)S(=O)(=O)c1ccc(Cl)c(Cl)c1 | > 10 | > 10 |  |
| Cc1ccc2nc(SCC(=O)c3cc(C)n(-c4ccc5c(c4)OCCO5)c3C)[nH]c2c1 |  | > 10 | IC50 (FFLUC_HILL_SLOPE 12.9, FFLUC_R_SQUARED 0.345, HEPG2TOX_HILL_SLOPE 0.403, HEPG2TOX_R_SQUARED 0.877, read-out: LUCIFERASE INFECTION ASSAY - IC50): > 10 µM |
| CCCn1c(NC(=O)C2CCCCN2S(=O)(=O)c2ccccc2)nc2ccccc21 (stereo unspecified) |  | 7.71 | IC50 (PBLUC_HILL_SLOPE 7.3, PBLUC_R_SQUARED 0.749, read-out: LUCIFERASE INFECTION ASSAY - IC50): 5.71 µM |
| FC(F)(F)c1ccc2nc(SCc3nc(-c4ccc(Cl)cc4)no3)[nH]c2c1 | > 8.03 | > 8.03 |  |
| O=C(NCc1ccc(N2CCCC2=O)cc1)c1cccnc1OCC(F)(F)F |  | 4.11 | IC50 (HEPG2TOX_HILL_SLOPE 1.59, HEPG2TOX_R_SQUARED 0.969, PBLUC_HILL_SLOPE 1.45, PBLUC_R_SQUARED 0.646, read-out: LUCIFERASE INFECTION ASSAY - IC50): 0.899 µM |
| Cc1ccnc(NC(=O)c2ccc(C3SCCCS3)cc2)c1 |  | 1.57 | IC50 (FFLUC_HILL_SLOPE 0.47, FFLUC_R_SQUARED 0.912, PBLUC_HILL_SLOPE 0.485, PBLUC_R_SQUARED 0.898, read-out: LUCIFERASE INFECTION ASSAY - IC50): 0.0169 µM |
| Cc1nc(-c2ccc(CCNC(=O)CN3C(=O)NC(C)(c4ccc5ccccc5c4)C3=O)cc2)cs1 (stereo unspecified) | > 10 | > 10 |  |
| Cc1cc(/C=N/Nc2ccnc3cc(Cl)ccc23)c(C)n1-c1cc(S(=O)(=O)N2CCOCC2)ccc1N1CCCC1 |  | > 10 | IC50 (FFLUC_HILL_SLOPE 15.8, FFLUC_R_SQUARED 0.537, PBLUC_HILL_SLOPE 3.6, PBLUC_R_SQUARED 0.465, read-out: LUCIFERASE INFECTION ASSAY - IC50): 6.84 µM |
| CCCc1cc(=O)n2nc(Cc3ccccc3)c(-c3ccccc3)c2[nH]1 |  | > 9.61 | IC50 (HEPG2TOX_HILL_SLOPE 6.09, HEPG2TOX_R_SQUARED 0.391, read-out: LUCIFERASE INFECTION ASSAY - IC50): > 9.61 µM |
| CS(=O)(=O)c1ccc2c(c1)sc1nc(-c3ccccc3Cl)cn12 |  | > 10 | IC50 (PBLUC_HILL_SLOPE 1.82, PBLUC_R_SQUARED 0.22, read-out: LUCIFERASE INFECTION ASSAY - IC50): 4.47 µM |
| CCNC(=O)NC(=O)C(Sc1nncn1-c1ccccc1OC)c1ccccc1 (stereo unspecified) |  | 9.43 | IC50 (HEPG2TOX_HILL_SLOPE 2.69, HEPG2TOX_R_SQUARED 0.767, PBLUC_HILL_SLOPE 3.33, PBLUC_R_SQUARED 0.658, read-out: LUCIFERASE INFECTION ASSAY - IC50): 4.87 µM |
| N#CC(C(=O)c1ccc(Br)s1)c1nc2ccccc2s1 (stereo unspecified) |  | 3.8 | IC50 (HEPG2TOX_HILL_SLOPE 2.2, HEPG2TOX_R_SQUARED 0.729, PBLUC_HILL_SLOPE 11.3, 11.3, PBLUC_R_SQUARED 0.872, 0.879, read-out: LUCIFERASE INFECTION ASSAY - IC50): 3.13 µM |
| Brc1cc2c(cc1CSc1ncnc3ccccc13)OCO2 |  | 1.53 | IC50 (HEPG2TOX_HILL_SLOPE 1.93, HEPG2TOX_R_SQUARED 0.941, PBLUC_HILL_SLOPE 155, PBLUC_R_SQUARED 0.104, read-out: LUCIFERASE INFECTION ASSAY - IC50): 1.51 µM |
| CN(C)c1cccc(-c2cnc3sc(NCCc4ccncc4)nn23)c1 | > 9.05 | > 9.05 |  |
| CC1C/C(=N\Nc2cc(Cl)cc(Cl)c2)c2cc(Cl)ccc2S1(=O)=O (stereo unspecified) | 6.27 | > 8.17 |  |
| O=C(COC(=O)c1cn(-c2ccccc2)nc1-c1cccs1)Nc1nnc(-c2ccccc2)o1 | > 10 | > 10 |  |

| Compound | IC50 [1] [µM] | IC90 [µM] | also measured |
| --- | --- | --- | --- |
| CSc1nc2nc(C)c(CCC(=O)N(CC(F)(F)F)C(C)C3CC3)c(C)n2n1 (stereo unspecified) | 0.994 | 1.24 |  |
| CC(C)CC(N)c1csc(NC(=O)Nc2ccc(F)c(Cl)c2)n1 (stereo unspecified) | > 9.25 | > 9.25 |  |
| Nc1c(C(=O)N2CCOCC2)sc2nc3c(cc12)CCCCC3 |  | 0.424 | IC50 (FFLUC_HILL_SLOPE 2.88, FFLUC_R_SQUARED 0.736, PBLUC_HILL_SLOPE 1.46, PBLUC_R_SQUARED 0.898, read-out: LUCIFERASE INFECTION ASSAY - IC50): 0.0939 µM |
| Brc1ccc(CNc2ccc3ncccc3c2)cc1 | > 10.5 | > 10.5 |  |
| CCOC(=O)c1sc2cccc(F)c2c1CSc1nc2sccc2c(=O)n1C | 4.11 | 9.27 |  |
| Cc1nc(C2CC2)nc(SC(C)C)c1C#N |  | > 10 | IC50 (HEPG2TOX_HILL_SLOPE 17, HEPG2TOX_R_SQUARED 0.522, PBLUC_HILL_SLOPE 1.64, PBLUC_R_SQUARED 0.538, read-out: LUCIFERASE INFECTION ASSAY - IC50): 5.26 µM |
| COc1cc(/C=C/C(=O)c2ccc(C3CCCCC3)cc2)cc(Br)c1OCC(=O)N(C)C |  | 3.59 | IC50 (HEPG2TOX_HILL_SLOPE 2.02, HEPG2TOX_R_SQUARED 0.972, PBLUC_HILL_SLOPE 3.75, PBLUC_R_SQUARED 0.69, read-out: LUCIFERASE INFECTION ASSAY - IC50): 2 µM |
| CCOc1ccc(-c2cc(-c3ccc(S(C)(=O)=O)cc3)nc3c2cnn3C(C)C)cc1 |  | > 10 | IC50 (HEPG2TOX_HILL_SLOPE 15.4, HEPG2TOX_R_SQUARED 0.615, PBLUC_HILL_SLOPE 23, PBLUC_R_SQUARED 0.199, read-out: LUCIFERASE INFECTION ASSAY - IC50): 9.21 µM |
| Cc1ccc(CN(C)C(=O)NNC(=O)c2ccccc2)c(C)c1 | > 10 | > 10 |  |
| Cc1nc2ccccc2c(=O)n1-c1ccc(C(=O)NCCc2ccc3c(c2)OCCO3)cc1 | > 10 | > 10 |  |
| CCCCc1ccc(CC(=O)NCc2ccc(Cn3cccn3)cc2)cc1 |  | 8.98 | IC50 (HEPG2TOX_HILL_SLOPE 7.71, 2.15, HEPG2TOX_R_SQUARED 0.735, 0.901, PBLUC_HILL_SLOPE 15.3, 3.44, PBLUC_R_SQUARED 0.0878, 0.809, read-out: LUCIFERASE INFECTION ASSAY - IC50): 7.36 µM |
| Clc1nc(NCc2ccc3c(c2)OCO3)c2[nH]cnc2n1 |  | > 10.9 | IC50 (PBLUC_HILL_SLOPE 2.33, PBLUC_R_SQUARED 0.359, read-out: LUCIFERASE INFECTION ASSAY - IC50): 9.8 µM |
| Nc1ncc(-c2ccc(F)cc2F)cc1-c1cccc(C(F)(F)F)c1 |  | > 9.42 | IC50 (PBLUC_HILL_SLOPE 3.4, PBLUC_R_SQUARED 0.237, read-out: LUCIFERASE INFECTION ASSAY - IC50): 7.55 µM |
| CC(C)c1ccc2c(c1)/C(=N/NC(=S)NCCc1ccccc1)C(=O)N2 |  | 8.12 | IC50 (FFLUC_HILL_SLOPE 19.2, FFLUC_R_SQUARED 0.695, HEPG2TOX_HILL_SLOPE 7.84, HEPG2TOX_R_SQUARED 0.253, PBLUC_HILL_SLOPE 4.58, PBLUC_R_SQUARED 0.343, read-out: LUCIFERASE INFECTION ASSAY - IC50): 5.02 µM |
| Cc1c(C)n(CCCN(C)C)c2ncn3nc(-c4ccc(N(C)C)cc4)nc3c12 |  | > 8.43 | IC50 (PBLUC_HILL_SLOPE 1.37, PBLUC_R_SQUARED 0.575, read-out: LUCIFERASE INFECTION ASSAY - IC50): 3.73 µM |
| CN(C)CCOCCOc1c(Cl)cc(Cl)cc1Cl | > 10 | > 10 |  |
| COc1cc(CNc2nccc3nc(-c4ccccc4Cl)[nH]c23)cc(OC)c1OC | 8.57 | > 10 |  |
| Cc1cc2ncc(-c3ccnc(SCC(=O)Nc4ccc(Cl)cc4Cl)n3)c(C)n2n1 |  | > 7.18 | IC50 (PBLUC_HILL_SLOPE 0.44, PBLUC_R_SQUARED 0.0613, read-out: LUCIFERASE INFECTION ASSAY - IC50): > 7.18 µM |
| Cc1ccc(C)c(OCC(O)CN2CCN(Cc3nc(-c4ccc(Cl)cc4)no3)CC2)c1 (stereo unspecified) |  | 7.62 | IC50 (HEPG2TOX_HILL_SLOPE 2.12, HEPG2TOX_R_SQUARED 0.919, PBLUC_HILL_SLOPE 1.87, PBLUC_R_SQUARED 0.881, read-out: LUCIFERASE INFECTION ASSAY - IC50): 2.36 µM |
| COc1cccc(-c2nc3ccc(NC(=O)Nc4ccc(OC(F)(F)F)cc4)cn3n2)c1 |  | > 10 | IC50 (FFLUC_HILL_SLOPE 45.6, FFLUC_R_SQUARED 0.742, read-out: LUCIFERASE INFECTION ASSAY - IC50): > 10 µM |
| CC(Nc1ccc2c(c1)Cc1ccccc1-2)C(=O)N1CCCC1 (stereo unspecified) |  | > 10 | IC50 (PBLUC_HILL_SLOPE 13.8, PBLUC_R_SQUARED 0.568, read-out: LUCIFERASE INFECTION ASSAY - IC50): 8.56 µM |
